# Results reported in patent US8768431B2, “Systems and methods for tissue imaging” (The Regents of the University of Michigan, priority 2007, dated 2014).
# Key:
# 9L tumors [1] = test: fDM / diffusion MRI of intracerebral 9L tumors after BCNU; assay type: in vivo, rat; details: for group mean VR: ±SEM
# Description: (§1) Intracranial Tumor Implantation. All animal works were carried out in the animal facility of the University of Michigan (Ann Arbor, Mich.) in accordance with federal, local, and institutional guidelines. Intracerebral brain tumors were implanted in male Fischer 344 rats (Charles River Breeding Laboratories, Wilmington, Mass.) weighing between 125 and 150 g. Animals were anesthesized by intraperitoneal administration of a ketamine (87 mg/kg)/xylazine (13 mg/kg) mixture. A small skin incision was made over the right hemisphere, and a 1-mm-diameter burr hole was drilled through the skull. A sterile suspension of 1×10^5 9L cells in 5 μl of serum-free medium was introduced through a 27-gauge needle inserted to a depth of 3 mm. Rats were allowed to recover after tilling the burr hole with bone wax and suturing the skin closed.
# (§2) Chemotherapy. Thirty-three animals with 9L tumors were entered into the study. When in vivo tumor volumes had reached […] were divided into four groups. Group 1 received 0.1 ml of drug vehicle (10% ethanol) and was used as a control group (n=7). Groups 2 to 4 received 6.65 mg/kg BCNU (n=7), 13.3 mg/kg BCNU (n=11), and 26.6 mg/kg BCNU (n=8), respectively, diluted in 10% ethanol. All treatments were administered by a single intraperitoneal injection on day 0. T2-weighted (T2, MRI transverse relaxation time) and diffusion MRI were performed every other day posttherapy to measure volumetric and cell density changes, respectively. Animal survival data were also obtained for all groups.
# (§3) Diffusion MRI. Maps of tumor ADC values were acquired every other day up to 14 days posttherapy using a previously described method (see, e.g., Chenevert T L, et al., J Natl Cancer Inst. 2000; 92:2029-2036; herein incorporated by reference in its entirety). Briefly, a trace diffusion-weighted multislice spin echo sequence (with motion compensation and navigator echo) was used to acquire 13 slices with two different diffusion weightings [b1=100 sec/mm^2; b2=1248 sec/mm^2; image slice thickness=1 mm; image matrix=128×128 (0-256); field of view=30×30 mm; echo time=60 milliseconds]. During all MRI procedures, the animals were anesthesized with 1.5% isoflurane, and body temperature was maintained at 37° C. using a heated water-recirculating pad. The images acquired with b1 were essentially T2-weighted images, and these were used to segment the tumor from the normal brain for volumetric analysis using an “in-house” region drawing tool developed in MATLAB (Natick, Mass.).
# Image Registration and fDM. An important part of fDM analysis is the registration of parametric ADC maps acquired posttherapy to baseline ADC maps acquired before treatment. Image registration was performed using an automated linear affine coregistration algorithm (MIAMI Fuse; University of Michigan, Ann Arbor, Mich.) to maximize mutual information between the two temporally distinct three-dimensional data sets (see, e.g., Meyer C R, et al., Med Image Anal. 1997; 1:195-206; herein incorporated by reference in its entirety). Following registration and tumor segmentation of voxels within the tumor both at baseline and on day 4, fDM statistics were calculated. Firstly, ADC values of voxels posttherapy were plotted as a function of baseline ADC values. These tumor voxels were then further segmented into three regions based on an upper threshold and a lower threshold of ADC change. That is, tumor voxels that had increased ADC above the upper threshold were region I (VR, red voxels), voxels that had decreased below the lower threshold were region 2 (VB, blue voxels), and all other voxels were region 3 (VG, green voxels). A comparison between treatment groups and the measurement of fDM dose dependence was accomplished to optimize the sensitivity of the thresholds used (±0.4×10^−9 m^2/sec). Normalized volumes were then calculated for each animal, and group statistics were calculated.
# 9L tumor cells = test: MRI tumor volume and log cell kill of 9L tumors; assay type: in vivo, rat
# Description: as §2, §3
# (§4) Tumor Cell Kill Calculations and Statistical Analysis. The quantification of tumor cell kill from serially volumetric imaging data for each animal was accomplished as previously described (see, e.g., Ross B D, et al., Proc Natl Acad Sci USA. 1998; 95:7012-7017; herein incorporated by reference in its entirety). In brief, log(cell kill)[…]log10[Vpre/Vpost], where V represents the tumor volume from MRI. Linear least squares analysis was used to measure the statistical significance of trends in the BCNU dose dependence of fDM volume, animal survival, and log cell kill, and in the correlation of fDM response with survival and cell kill. When two groups were compared, a one-tailed Student's /test was used. Both linear least squares and Student's t test were performed using Microsoft Excel (Microsoft, Redmond, Wash.). To compare the median survival of all four animal groups, a log rank test was performed using Prism (GraphPad Software, Inc., San Diego, Calif.).
# 9L tumors [2] = test: Histopathology (H&E) of fDM regions of 9L tumors; assay type: in vivo, rat; details: 6.67 mg/kg BCNU; ×40 objective
# Description: Histopathology. In a separate study consisting of eight animals, two animals per treatment group were imaged pretreatment and again at 6 to 7 days posttherapy. Following the second imaging session, animals were euthanized, and the brains were fixed in 10% paraformaldehyde. After 48 hours, fixed tissues were transferred to 70% ethanol and embedded in paraffin. Formalin-fixed paraffin-embedded specimens were serially sectioned and slide-mounted. Sections were stained with hematoxylin and eosin (H&E) and compared to fDMs.
# 9L tumors [3] = test: Animal survival of rats with intracerebral 9L tumors; assay type: in vivo, rat; details: for median survival: rat 9L tumors, control 7 days
# Description: as §1, §2, §4
# PC3^Luc tumor cells = test: Bioluminescence imaging of PC3Luc metastatic prostate cancer model; assay type: in vivo, SCID mice; details: docetaxel 40 mg/kg/wk×3, n=9; controls rose continuously
# Description: Cell Lines. PC3 cells were transfected with a luciferase-encoding pLazarus retroviral construct using Fugene 6 (Roche Applied Science, Indianapolis, Ind.) as per manufacturer's instructions. Wildtype PC3 cells were cultured in RPMI-1640 supplemented with 10% FBS whereas transfected cells (PC3^Luc were maintained in selection media supplemented with 200 μg/ml G418 (Invitrogen; Carlsbad, Calif.).
# (§5) Mice. Male SCID mice (Charles River Laboratories, Wilmington, Mass.) were housed in specific pathogen free rooms at The University of Michigan AAALAC, International accredited facilities. For implantation of PC3^Luc cells, mice were anesthetized with 1.75% isotluorane/air anesthesia and 2×10^5 cells in 100 μl of sterile Dulbecco's PBS lacking Ca^+2and Mg^+2 (DPBS) were administered into the left ventricle of the heart.
# Bioluminescence Detection. […] Bioluminescence studies were initiated prior to treatment for baseline values and performed throughout the experiment. For these studies, mice were anesthetized with a 2% isofluorane/air mixture and given a single i.p. dose of 150 mg/kg D-luciferin (Promega; Madison, Wis.) in normal saline. […] Results were analyzed using Living Image® software provided with the Xenogen imaging system. Signal intensity was quantified as the sum of all detected photon counts within a uniform region-of-interest (ROI) manually placed during data post processing.
# [4] = system: PC3^Luc metastatic bone lesions; test: fDM analysis of metastatic bone lesions of PC3Luc model; assay type: in vivo, SCID mice; details: for percentage of increased ADC (fDM), representative treated animal: docetaxel 40 mg/kg/wk×3
# Description: as §5
# (§6) Magnetic Resonance Imaging. […] For MRI examination, mice were anesthetized with a 2% […] and maintained at 37 C, using a heated water bed, inside a 9.4-T Varian MR scanner (120-mm clear horizontal bore, Varian, Palo Alto, Calif.) and a double-tuned volume radiofrequency coil. A trace diffusion-weighted multi-slice spin echo sequence was used to acquire 15 slices with two different diffusion weightings (b1=184 s/mm^2, =1106 s/mm^2, slice thickness=0.5 mm, image matrix64×128, field of view=15×15 mm; TE=40 ms, TR=3.5 s). The z-gadient first moment was zeroed to reduce the dominant source of motion artifact as well as a 32-point navigator echo was prepended to each phase-encode echo. The phase deviation of each navigator echo relative to their mean was subtracted from the respective image echoes prior to the phase-encode Fourier transform. Images were acquired prior to treatment and subsequently 2 times per week. The low b-factor images were essentially T2-weighted to allow tumor volume measurements. The tumor boundary was manually defined on each slice and then integrated across slices to provide a volume estimate.
# Image Registration and fDM. An important part of fDM analysis is the registration of post-treatment ADC maps to baseline pretreatment ADC maps. Image registration was performed using an automated linear affine coregistration algorithm to maximize mutual information between the two temporally distinct three-dimensional data sets (see, e.g., Meyer C R, et al., Med Image Anal 1997; 1:195-206; herein incorporated by reference in its entirety). Following registration and segmentation of voxels within the tumor both at baseline and on day 4, fDM statistics were calculated (I-Response™, Cedara Software, Mississauga, Ontario). Firstly, ADC values of voxels post therapy were plotted as a function of baseline ADC values. These voxels were then further segmented into three regions based on an upper and lower threshold of ADC change. Tumor voxels with an ADC increase above the upper threshold were depicted as red, whereas voxels that had decreased below the lower threshold were depicted as blue.
# [5] = system: PC3^Luc metastatic bone lesions; test: MRI tumor volume of PC3Luc bone lesions; assay type: in vivo, SCID mice
# Excerpt: as §6
# [6] = 6.65 mg/kg BCNU, day 4 posttreatment
# [7] = 26.6 mg/kg BCNU, day 4 posttreatment
# [8] = p<0.05, treated n=7 vs control n=5
structure (smiles),measurement,setting,value
O=NN(CCCl)C(=O)NCCCl [BCNU],mean ADC change,"9L tumors [1]; 6.65 mg/kg BCNU, day 4, control −0.8±2.7%",10.7±2.2%
same,group mean VR,"9L tumors [1]; 6.65 mg/kg BCNU, day 4, control 3.9±1.7",10.6±2.8%
same,"VB (tumor volume with decreased ADC), representative animal",9L tumors [1]; [6],2.6%
same,"VR (tumor volume with increased ADC), representative animal",9L tumors [1]; [6],7.7%
same,mean ADC change (ΔADC),"9L tumors [1]; 13.3 mg/kg BCNU, day 4",22.9±5.3%
same,group mean VR,"9L tumors [1]; 13.3 mg/kg BCNU, day 4",28.7±8.0%
same,"VR (tumor volume with increased ADC), representative animal","9L tumors [1]; 13.3 mg/kg BCNU, day 4 posttreatment",30%
same,mean ADC change,"9L tumors [1]; 26.6 mg/kg BCNU, day 4",49.0±9.7%
same,group mean VR,"9L tumors [1]; 26.6 mg/kg BCNU, day 4",62.0 ±9.0%
same,"VB (tumor volume with decreased ADC), representative animal",9L tumors [1]; [7],0.3%
same,"VR (tumor volume with increased ADC), representative animal",9L tumors [1]; [7],90.6%
same,best-fit gradient of VR as a function of drug dose,"9L tumors [1]; day 4 posttreatment, threshold ±0.4×10^−9 m^2/sec, P=5.8×10^−6",2.30 ± 0.40 kg/mg
same,log cell kill,"9L tumor cells; 6.65 mg/kg BCNU, control −0.09±0.04",−0.25±0.08
same,log cell kill,9L tumor cells; 13.3 mg/kg BCNU,1.28±0.18
same,log cell kill,9L tumor cells; 26.6 mg/kg BCNU,3.22±0.51
same,"gradient of least squares fit, normalized tumor volume as a function of dose","9L tumor cells; 4 days posttreatment, 0-26.6 mg/kg BCNU, P=0.004",−4.0±1.3
same,active mitoses in low-diffusion (VB) region,9L tumors [2],153 mitoses in 10 high-power fields
same,mitoses in VR region,9L tumors [2],96 mitoses in 10 high-power fields
same,median survival,9L tumors [3]; 6.65 mg/kg BCNU single i.p.,13 days posttherapy
same,median survival,9L tumors [3]; 13.3 mg/kg BCNU single i.p.,23.5 days posttherapy
same,median survival,9L tumors [3]; 26.6 mg/kg BCNU single i.p.,35.5 days posttherapy
same,animal survival relative to the control group,"9L tumors [3]; 6.65-26.6 mg/kg BCNU, log rank P<0.05",dose-dependent increase in animal survival
CC(=O)O[C@@]12CO[C@@H]1C[C@H](O)[C@@]1(C)C(=O)[C@H](O)C3=C(C)[C@@H](OC(=O)[C@H](O)[C@@H](NC(=O)OC(C)(C)C)c4ccccc4)C[C@@](O)([C@@H](OC(=O)c4ccccc4)[C@H]21)C3(C)C [docetaxel],mean photon counts (luciferase activity),PC3^Luc tumor cells,remained stable throughout the experiment
same,"percentage of increased ADC (fDM), representative treated animal",[4]; day 7 post initiation,4.0%
same,"percentage of increased ADC (fDM), representative treated animal",[4]; day 14 post initiation,30.0%
same,"percentage of increased ADC (fDM), representative treated animal",[4]; day 18 post initiation,53.7%
same,time at which fDM values differ significantly from control,[4]; [8],7 days post-treatment
same,mean changes in tumor diffusion by fDM,"[4]; three week treatment period, treated n=7",progressively increasing fDM diffusion changes
same,"MRI tumor volumes, outcome of therapy","[5]; control tumors kept growing, treated tumors did not",efficacious
same,time at which tumor volumes differ significantly from control,[5]; [8],11 day post-treatment initiation
